Common to all, as to format: cell-based
Test [1] deals with Enterobacter aerogeneus No. 75. Put plainly: Minimum Inhibitory Concentration, Enterobacter aerogeneus No. 75. As to conditions: Enterobacter aerogeneus No. 75; read-out: Minimum Inhibitory Concentration. As for the experimental part:
(§1) anti-microbial activity tests were carried out on the compounds obtained in the Examples.

For test [2], the system named is Staphylococcus aureus FS 289. Put plainly: Minimum Inhibitory Concentration, Staphylococcus aureus FS 289. As to conditions: FS289; Staphylococcus aureus FS 289, strain resistant to penicillin; read-out: Minimum Inhibitory Concentration. The method, then: as §1
*Staphylococcus aureus FS 289: strain resistant to penicillin

Test [3] has as its system Staphylococcus aureus 209 P. Put plainly: Minimum Inhibitory Concentration, Staphylococcus aureus 209 P. As to conditions: Staphylococcus aureus 209 P; read-out: Minimum Inhibitory Concentration. The method, then:
as §1

Test [4] deals with Klebsiella pneumoniae 602. In words: Minimum Inhibitory Concentration, Klebsiella pneumoniae 602. As to conditions: Klebsiella pneumoniae, 602, Klebsiella pneumoniae 602; read-out: Minimum Inhibitory Concentration. The method, then:
as §1

Another test deals with Serratia No. 72. In words: Minimum Inhibitory Concentration, Serratia No. 72. The method, then: as §1
The test system of test [5] is Pseudomonas aeruginosa 104. Put plainly: Minimum Inhibitory Concentration, Pseudomonas aeruginosa 104. The note with it: Pseudomonas aeruginosa 104; read-out: Minimum Inhibitory Concentration. The method, then:
as §1

A further test concerns Proteus vulgaris HX 19. In words: Minimum Inhibitory Concentration, Proteus vulgaris HX 19. As to conditions: HX19; Proteus vulgaris HX 19; read-out: Minimum Inhibitory Concentration. As for the experimental part: as §1
A further test deals with Escherichia coli NIHJ. In words: Minimum Inhibitory Concentration, Escherichia coli NIHJ. The note with it: Escherichia coli NIHJ; read-out: Minimum Inhibitory Concentration. As for the experimental part: as §1

Converted amounts (≈) assume the structure as drawn. A value given as a limit tells only on which side of the number the result lay.

Take `CSc1ncc2c(O)c(C(=O)NC(C(=O)NC3C(=O)N4C(C(=O)O)=C(CSc5nnnn5C)CSC34)c3ccc(O)cc3)nnc2n1` (stereo not drawn) [Example 173]: the MIC in test [1] came out at 25 µg/mL (≈ 35.8 µM); in test [2], 12.5 µg/mL (≈ 17.9 µM); in test [3], 0.78 µg/mL (≈ 1.12 µM); in test [4], 6.25 µg/mL (≈ 8.96 µM); against Serratia No. 72, 50 µg/mL (≈ 71.7 µM); in test [5] it was 6.25 µg/mL (≈ 8.96 µM). The values for the MIC in the test with Proteus vulgaris HX 19 and in the test on Escherichia coli NIHJ were 0.78 µg/mL (≈ 1.12 µM) and 12.5 µg/mL (≈ 17.9 µM), respectively.
As to `Cn1nnnc1SCC1=C(C(=O)O)N2C(=O)C(NC(=O)C(NC(=O)c3cnc4ccc(O)nc4c3O)c3ccc(O)cc3)C2SC1` (stereo not drawn) [Example 174], the MIC stood at 3.13 µg/mL (≈ 4.7 µM) in test [1]; 12.5 µg/mL (≈ 18.8 µM) in test [2]; 0.78 µg/mL (≈ 1.17 µM) in test [3]; 1.56 µg/mL (≈ 2.34 µM) in test [4]; 12.5 µg/mL (≈ 18.8 µM) with Serratia No. 72; 3.13 µg/mL (≈ 4.7 µM) in test [5]. The figures for the MIC in the test on Proteus vulgaris HX 19 and in the test with Escherichia coli NIHJ were 0.39 µg/mL (≈ 0.586 µM) and 3.13 µg/mL (≈ 4.7 µM), respectively.
With `Cn1nnnc1SCC1=C(C(=O)O)N2C(=O)C(NC(=O)C(NC(=O)c3cnc4c(O)ccnc4c3O)c3ccc(O)cc3)C2SC1` (stereo not drawn) [Example 175], the MIC in test [1] came to 6.25 µg/mL (≈ 9.39 µM); in test [2], 12.5 µg/mL (≈ 18.8 µM); in test [3], 0.78 µg/mL (≈ 1.17 µM); in test [4], 3.13 µg/mL (≈ 4.7 µM); against Serratia No. 72 it was 12.5 µg/mL (≈ 18.8 µM); in test [5], 3.13 µg/mL (≈ 4.7 µM). The figures for the MIC in the test on Proteus vulgaris HX 19 and with Escherichia coli NIHJ were 0.39 µg/mL (≈ 0.586 µM) and 3.13 µg/mL (≈ 4.7 µM), respectively.
Consider `O=C(O)C1=C(CSc2nnc(CO)s2)CSC2C(NC(=O)C(NC(=O)c3cnccc3O)c3ccc(O)cc3)C(=O)N12` (stereo not drawn) [Example 176], for which the MIC in test [1] was found to be 12.5 µg/mL (≈ 19.8 µM); in test [2], 6.25 µg/mL (≈ 9.91 µM); in test [3], 0.39 µg/mL (≈ 0.618 µM); in test [4], 6.25 µg/mL (≈ 9.91 µM); with Serratia No. 72 it was 50 µg/mL (≈ 79.3 µM); in test [5], 12.5 µg/mL (≈ 19.8 µM). Moreover, the MIC in the test on Proteus vulgaris HX 19 was determined as 0.2 µg/mL (≈ 0.317 µM); with Escherichia coli NIHJ, 6.25 µg/mL (≈ 9.91 µM).
With `O=C(O)C1=C(CSc2ccc(O)nn2)CSC2C(NC(=O)C(NC(=O)c3cnccc3O)c3ccc(O)cc3)C(=O)N12` (stereo not drawn) [Example 177], the MIC in test [1] is 12.5 µg/mL (≈ 20.5 µM); in test [2] it was 6.25 µg/mL (≈ 10.2 µM); in test [3] it was 0.39 µg/mL (≈ 0.639 µM); in test [4], 6.25 µg/mL (≈ 10.2 µM); against Serratia No. 72 it was 100 µg/mL (≈ 164 µM); in test [5] it was 12.5 µg/mL (≈ 20.5 µM). Further, the MIC in the test on Proteus vulgaris HX 19 is 0.2 µg/mL (≈ 0.328 µM); with Escherichia coli NIHJ it was 6.25 µg/mL (≈ 10.2 µM).
Turning to `O=C(O)C1=C(CSc2nnc(CO)s2)CSC2C(NC(=O)C(NC(=O)c3cnc4cccnc4c3O)c3ccc(O)c(O)c3)C(=O)N12` (stereo not drawn) [Example 178], the MIC in test [1] came out at 6.25 µg/mL (≈ 8.96 µM); in test [2], 6.25 µg/mL (≈ 8.96 µM); in test [3], 0.78 µg/mL (≈ 1.12 µM); in test [4] it was 1.56 µg/mL (≈ 2.24 µM); with Serratia No. 72, 12.5 µg/mL (≈ 17.9 µM); in test [5] it was 3.13 µg/mL (≈ 4.49 µM). The MIC was 0.2 µg/mL (≈ 0.287 µM) with Proteus vulgaris HX 19 and 3.13 µg/mL (≈ 4.49 µM) with Escherichia coli NIHJ.
`Cn1nnnc1SCC1=C(C(=O)O)N2C(=O)C(NC(=O)C(NC(=O)c3cnccc3O)c3ccc(O)c(Cl)c3)C2SC1` (stereo not drawn) [Example 179]: the MIC is 12.5 µg/mL (≈ 19.7 µM) in test [1]; 6.25 µg/mL (≈ 9.87 µM) in test [2]; 0.39 µg/mL (≈ 0.616 µM) in test [3]; 6.25 µg/mL (≈ 9.87 µM) in test [4]; 50 µg/mL (≈ 79 µM) against Serratia No. 72; 12.5 µg/mL (≈ 19.7 µM) in test [5]. Further, the MIC with Proteus vulgaris HX 19 is 0.39 µg/mL (≈ 0.616 µM); in the test with Escherichia coli NIHJ, 6.25 µg/mL (≈ 9.87 µM).
With `Cn1nnnc1SCC1=C(C(=O)O)N2C(=O)C(NC(=O)C(NC(=O)c3cnc4cccnc4c3O)c3cccc(O)c3)C2SC1` (stereo not drawn) [Example 180], the MIC in test [1] came to 3.13 µg/mL (≈ 4.82 µM); in test [2], 6.25 µg/mL (≈ 9.62 µM); in test [3], 0.78 µg/mL (≈ 1.2 µM); in test [4] it was 1.56 µg/mL (≈ 2.4 µM); in the test with Serratia No. 72, 12.5 µg/mL (≈ 19.2 µM); in test [5], 3.13 µg/mL (≈ 4.82 µM). The MIC in the test with Proteus vulgaris HX 19 was 0.1 µg/mL (≈ 0.154 µM); with Escherichia coli NIHJ, 3.13 µg/mL (≈ 4.82 µM).
Take `O=C(O)C1=C(CSc2nnc(CO)s2)CSC2C(NC(=O)C(NC(=O)c3cnc4cccnc4c3O)c3cccc(O)c3)C(=O)N12` (stereo not drawn) [Example 181]: the MIC stood at 6.25 µg/mL (≈ 9.17 µM) in test [1]; 6.25 µg/mL (≈ 9.17 µM) in test [2]; 0.78 µg/mL (≈ 1.14 µM) in test [3]; 1.56 µg/mL (≈ 2.29 µM) in test [4]; 12.5 µg/mL (≈ 18.3 µM) in the test with Serratia No. 72; 3.13 µg/mL (≈ 4.59 µM) in test [5]. Also, the values for the MIC in the test on Proteus vulgaris HX 19 and with Escherichia coli NIHJ were 0.2 µg/mL (≈ 0.293 µM) and 1.56 µg/mL (≈ 2.29 µM), respectively.
As for `CC(=O)OCC1=C(C(=O)O)N2C(=O)C(NC(=O)C(NC(=O)c3cnccc3O)c3ccc(O)c(O)c3)C2SC1` (stereo not drawn) [Example 182], the MIC is 25 µg/mL (≈ 44.8 µM) in test [1]; 3.13 µg/mL (≈ 5.6 µM) in test [2]; 0.78 µg/mL (≈ 1.4 µM) in test [3]; 25 µg/mL (≈ 44.8 µM) in test [4]; more than 200 µg/mL against Serratia No. 72; 12.5 µg/mL (≈ 22.4 µM) in test [5]. Moreover, the MIC came out at 0.78 µg/mL (≈ 1.4 µM) with Proteus vulgaris HX 19 and 12.5 µg/mL (≈ 22.4 µM) with Escherichia coli NIHJ.
`Cc1nnc(SCC2=C(C(=O)O)N3C(=O)C(NC(=O)C(NC(=O)c4cnccc4O)c4ccc(O)c(O)c4)C3SC2)s1` (stereo not drawn) [Example 183]: the MIC in test [1] amounted to 12.5 µg/mL (≈ 19.8 µM); in test [2], 6.25 µg/mL (≈ 9.91 µM); in test [3] it was 0.78 µg/mL (≈ 1.24 µM); in test [4], 12.5 µg/mL (≈ 19.8 µM); in the test on Serratia No. 72, 50 µg/mL (≈ 79.3 µM); in test [5] it was 6.25 µg/mL (≈ 9.91 µM). The MIC in the test on Proteus vulgaris HX 19 is 0.39 µg/mL (≈ 0.618 µM); in the test with Escherichia coli NIHJ it was 6.25 µg/mL (≈ 9.91 µM).
For `O=C(O)C1=C(CSc2nnc(CO)s2)CSC2C(NC(=O)C(NC(=O)c3cnccc3O)c3ccc(O)c(O)c3)C(=O)N12` (stereo not drawn) [Example 184], the MIC came to 12.5 µg/mL (≈ 19.3 µM) in test [1]; 6.25 µg/mL (≈ 9.66 µM) in test [2]; 0.78 µg/mL (≈ 1.21 µM) in test [3]; 12.5 µg/mL (≈ 19.3 µM) in test [4]; 50 µg/mL (≈ 77.3 µM) against Serratia No. 72; 6.25 µg/mL (≈ 9.66 µM) in test [5]. Further, the MIC in the test with Proteus vulgaris HX 19 worked out at 0.78 µg/mL (≈ 1.21 µM); in the test with Escherichia coli NIHJ, 6.25 µg/mL (≈ 9.66 µM).
Regarding `Cn1nnnc1SCC1=C(C(=O)O)N2C(=O)C(NC(=O)C(NC(=O)c3cnccc3O)c3ccc(O)c(O)c3)C2SC1` (stereo not drawn) [Example 185], the MIC in test [1] was 12.5 µg/mL (≈ 20.3 µM); in test [2] it was 6.25 µg/mL (≈ 10.2 µM); in test [3], 0.78 µg/mL (≈ 1.27 µM); in test [4], 6.25 µg/mL (≈ 10.2 µM); in the test with Serratia No. 72, 50 µg/mL (≈ 81.4 µM); in test [5], 6.25 µg/mL (≈ 10.2 µM). For the same compound, the MIC in the test on Proteus vulgaris HX 19 turned out to be 0.39 µg/mL (≈ 0.635 µM); in the test with Escherichia coli NIHJ, 6.25 µg/mL (≈ 10.2 µM).
In the case of `O=C(O)C1=C(CSc2cnn[nH]2)CSC2C(NC(=O)C(NC(=O)c3cnccc3O)c3ccc(O)c(O)c3)C(=O)N12` (stereo not drawn) [Example 186], the MIC amounted to 12.5 µg/mL (≈ 20.8 µM) in test [1]; 6.25 µg/mL (≈ 10.4 µM) in test [2]; 0.78 µg/mL (≈ 1.3 µM) in test [3]; 12.5 µg/mL (≈ 20.8 µM) in test [4]; 50 µg/mL (≈ 83.4 µM) with Serratia No. 72; 12.5 µg/mL (≈ 20.8 µM) in test [5]. In addition, the MIC with Proteus vulgaris HX 19 amounted to 0.78 µg/mL (≈ 1.3 µM); with Escherichia coli NIHJ, 6.25 µg/mL (≈ 10.4 µM).
Take `Cn1nnnc1SCC1=C(C(=O)O)N2C(=O)C(NC(=O)C(NC(=O)c3cnccc3O)c3ccc(O)c(F)c3)C2SC1` (stereo not drawn) [Example 187]: the MIC in test [1] stood at 12.5 µg/mL (≈ 20.3 µM); in test [2] it was 6.25 µg/mL (≈ 10.1 µM); in test [3], 0.78 µg/mL (≈ 1.26 µM); in test [4] it was 12.5 µg/mL (≈ 20.3 µM); against Serratia No. 72, 50 µg/mL (≈ 81.1 µM); in test [5] it was 6.25 µg/mL (≈ 10.1 µM). Also, the MIC is 0.39 µg/mL (≈ 0.632 µM) with Proteus vulgaris HX 19 and 6.25 µg/mL (≈ 10.1 µM) in the test with Escherichia coli NIHJ.

For the origin of these results see patent US4156724A, “N-acylamino-alpha-arylacetamido cephalosporins and antibacterial compositions and methods containing them” (Sumitomo Chemical Company, Limited, priority 1974, dated 1979).
